These results are taken from patent publication US9018451B2, “Optimized expression of glyphosate resistance encoding nucleic acid molecules in plant cells” (M S Technologies, LLC, priority 2010, dated 2015).

Assay in all cases: Field trial, in planta tolerance to glyphosate, injury assessed seven days after application
What all share (format): in vivo, Glycine max

In experiment [1] the test system is non-transgenic soybean (cv Maverick). The note with it: Maverick non-transgenic control, 7 days after application. On the procedure:
(§1) Soybean events containing the 2mEPSPv2 expression cassette construct from pDAB8291 are tolerant to glyphosate. Field trials were performed during the 2009 and 2010 growing seasons. The plots were planted with the transgenic soybean seed which had been produced from the transformation with pDAB8291 and non-transgenic soybean (cv Maverick) which was used as a control. Field grown soybean plants from the T2 and T4 generation were sprayed with high rates of glyphosate. Glyphosate (DURANGO® herbicide Dow AgroSciences, Indianapolis, Ind.) applications were made at the V3 or V5 stage of plant development at a rate of 2,240 g ae/ha. Seven days after glyphosate application, the plants were assessed for injury.

Experiment [2] concerns soybean plants transformed with pDAB8291. The note with it: T2 and T4 field grown plants, 2,240 g ae/ha at V3 or V5, seven days after application. On the procedure:
as §1

For experiment [3], the system named is Soybean event 8291-4524 expressing 2mEPSPS (construct pDAB8291). The note with it: 7 days after application. On the procedure: as §1
The subject of experiment [4] is Soybean event 8291-4536 expressing 2mEPSPS (construct pDAB8291). The note with it: 7 days after application. On the procedure:
as §1

Molecules are shown by their SMILES.

Take `O=C(O)CNCP(=O)(O)O` [Glyphosate, N-phosphonomethylglycine]: the “Adjusted Mean Injury 7daa(%)” value in experiment [1] (T2 trial, application at V3, 2,240 g ae/ha glyphosate) is reported as 100%; in experiment [1] (T4 trial, application at V5, 2,240 g ae/ha glyphosate), 100%; in experiment [3] (event 8291-4524, T2 generation, application at V3, 2,240 g ae/ha glyphosate), 10%; in experiment [3] (event 8291-4524, T4 generation, application at V5, 2,240 g ae/ha glyphosate), 0.5%; in experiment [4] (event 8291-4536, T2 generation, application at V3, 2,240 g ae/ha glyphosate), 3.5%; in experiment [4] (event 8291-4536, T4 generation, application at V5, 2,240 g ae/ha glyphosate), 0.75%. In experiment [2], the “injury (damage) to plants as compared to Maverick controls” value is on record as “Minimal damage”.
